IC50 data for 1 molecule are collected here from US8022219B2, “2-hydroxymethy1-3,4,5-trihydroxy-1-(4-pentyloxybenzyl) piperidine as glucosylceramide synthase (Gcs) inhibitor” (Actelion Pharmaceuticals Ltd., priority 2003, dated 2011).

The target of assay [1] is T1, human recombinant GCS expressed in insect cells (Homo sapiens, UniProt Q16739).
T1 construct: made in house; host or cells: insect cells
T1 sequence (Q16739 1-394): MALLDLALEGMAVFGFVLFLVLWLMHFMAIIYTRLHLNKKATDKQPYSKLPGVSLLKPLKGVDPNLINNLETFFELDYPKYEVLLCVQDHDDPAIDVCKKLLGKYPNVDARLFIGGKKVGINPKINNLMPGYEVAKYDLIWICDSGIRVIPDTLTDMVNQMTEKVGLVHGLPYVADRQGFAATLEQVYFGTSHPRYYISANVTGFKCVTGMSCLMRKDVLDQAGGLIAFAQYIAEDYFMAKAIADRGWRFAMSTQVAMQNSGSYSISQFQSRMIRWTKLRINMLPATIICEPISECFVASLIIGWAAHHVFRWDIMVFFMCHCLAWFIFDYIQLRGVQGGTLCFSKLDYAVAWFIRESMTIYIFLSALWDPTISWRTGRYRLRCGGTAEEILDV
Kind of assay: Inhibition of GCS. To be noted: read-out: Inhibition of glucosylceramide synthase (IC50 μM). It is filed as biochemical. On the procedure:
The assay for inhibition of GCS was performed essentially as described in Platt et al., J. Biol. Chem., 1994, 269, 27108, the enzyme source being human recombinant GCS expressed in insect cells.

Assay [2] deals with T2, non-lysosomal-β-glucocerebrosidase (Homo sapiens, UniProt Q9HCG7).
T2 construct: whole cell extracts of MCF7 (a human breast carcinoma cell line) was used as the source of the enzyme; endogenous in cells; host or cells: MCF7 whole cell extract
T2 sequence (Q9HCG7 1-927): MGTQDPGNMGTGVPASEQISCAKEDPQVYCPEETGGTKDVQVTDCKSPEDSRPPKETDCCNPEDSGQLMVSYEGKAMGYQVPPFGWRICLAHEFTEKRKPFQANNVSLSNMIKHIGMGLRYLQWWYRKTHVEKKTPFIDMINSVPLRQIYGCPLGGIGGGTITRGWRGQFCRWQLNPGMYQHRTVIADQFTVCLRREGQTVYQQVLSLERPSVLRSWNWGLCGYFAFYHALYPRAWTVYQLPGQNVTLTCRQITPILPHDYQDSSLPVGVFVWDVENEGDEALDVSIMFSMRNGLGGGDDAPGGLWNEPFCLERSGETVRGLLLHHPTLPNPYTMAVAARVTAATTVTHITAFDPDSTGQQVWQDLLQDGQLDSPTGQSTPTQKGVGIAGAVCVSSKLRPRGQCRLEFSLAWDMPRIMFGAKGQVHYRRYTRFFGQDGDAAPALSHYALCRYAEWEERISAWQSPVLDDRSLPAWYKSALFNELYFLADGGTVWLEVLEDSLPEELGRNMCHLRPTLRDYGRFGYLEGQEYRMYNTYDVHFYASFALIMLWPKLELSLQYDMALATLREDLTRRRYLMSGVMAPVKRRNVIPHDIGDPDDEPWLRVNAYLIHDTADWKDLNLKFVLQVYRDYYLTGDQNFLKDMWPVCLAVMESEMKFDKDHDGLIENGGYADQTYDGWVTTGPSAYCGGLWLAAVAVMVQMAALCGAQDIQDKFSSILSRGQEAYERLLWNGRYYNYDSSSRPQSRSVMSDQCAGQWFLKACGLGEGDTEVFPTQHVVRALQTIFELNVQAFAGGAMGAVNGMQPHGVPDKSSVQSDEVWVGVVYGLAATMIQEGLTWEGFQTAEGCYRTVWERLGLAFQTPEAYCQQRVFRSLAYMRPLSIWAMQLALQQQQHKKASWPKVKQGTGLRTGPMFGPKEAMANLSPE
Kind of assay: Inhibition of non-lysosomal-β-glucocerebrosidase. Format: biochemical. To be noted: whole cell extracts of MCF7 as enzyme source; 5 mM 4-MU β-glucoside; 0.2M citrate/phosphate pH 5.8. As to the method:
Inhibition of Non-Lysosomal-β-Glucocerebrosidase
The assay for inhibition of non-lysosomal-β-glucocerebrosidase was essentially carried out as described in Overkleeft, H. S. et al., J. Biol. Chem., 1998, 273, 26522-26527, with the following differences: whole cell extracts of MCF7 (a human breast carcinoma cell line) was used as the source of the enzyme instead of splenic membrane suspensions; 5 mM instead of 3 mM, 4-MU β-glucoside was used as substrate and 0.2M citrate/phosphate (pH 5.8) was used instead of McIlvaine buffer.

`CCCCCOc1ccc(CN2C[C@H](O)[C@@H](O)[C@@H](O)[C@@H]2CO)cc1` [Example 1, 3,4,5-Piperidinetriol, 2-(hydroxymethyl)-1-[(4-(pentyloxy)phenyl)methyl]-, (2S,3S,4R,5S)]: the IC50 (in general, the midpoint of a concentration-inhibition curve) in assay [1] stood at 4.8 µM; in assay [2] it was 2.5 µM.
